Here are results for eight compounds from PubChem BioAssay (NCI).

Among the test systems are UACC-62 melanoma; K-562 leukemia; NCI/ADR-RES ovarian; ACHN renal; HCT-116 colon; SN12C renal; SF-539 CNS; NCI-H23 lung; HT29 colon; OVCAR-8 ovarian.
Common to all, as to test: inhibition of tumour cell growth, NCI panel, 48 h

The structures appear in SMILES notation. Values joined by “and” are separate entries in the source; they are usually repeats but may differ in a detail not shown here. Equal entries are not always repeated.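 Grown in 96-well plates, cells were treated for 48 hours with each compound at five concentrations. Insufficient inhibition: endpoint recorded as highest concentration tested. At the GI50, growth is halved. TGI is the concentration that stops growth completely.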

Consider `CNC(=O)c1cc(Oc2ccc(NC(=O)Nc3ccc(Cl)c(C(F)(F)F)c3)c(F)c2)ccn1`, for which the GI50 is 0.98 µM in the experiment on UACC-62 melanoma; 1.21 µM and 1.81 µM in the experiment on K-562 leukemia; 2.67 µM and 2.44 µM in the experiment on NCI/ADR-RES ovarian; 3.29 µM and 2.88 µM with ACHN renal; 0.944 µM and 0.792 µM in the experiment on HCT-116 colon; 2.35 µM and 2.24 µM with SN12C renal. The GI50 in the experiment on SF-539 CNS was 2.15 µM and 1.45 µM; with NCI-H23 lung, 1.42 µM and 1.44 µM; in the experiment with HT29 colon it was 1.82 µM and 1.43 µM; in the experiment on OVCAR-8 ovarian, 2.39 µM and 2.31 µM. Moreover, the TGI is 4.73 µM in the experiment on UACC-62 melanoma; 7.13 µM and > 10 µM in the experiment on K-562 leukemia; 9.81 µM and > 10 µM in the experiment on NCI/ADR-RES ovarian; above 44.9 µM in the experiment on ACHN renal; 10.8 µM and 8.8 µM with HCT-116 colon; 12.1 µM and > 10 µM in the experiment on SN12C renal. Moreover, the TGI with SF-539 CNS was 10.7 µM and > 10 µM; in the experiment with NCI-H23 lung, 6.29 µM and 7.14 µM; with HT29 colon, 8.83 µM and > 10 µM; in the experiment on OVCAR-8 ovarian, > 20.8 µM and 8.28 µM.

For the compound `COc1cccc(CC(C)=C(c2ccc(OCCN3CCCCC3)cc2)c2ccc(OCCN3CCCCC3)cc2)c1`, the GI50 with UACC-62 melanoma was 2.1 µM; in the experiment with K-562 leukemia it was 0.315 µM; with NCI/ADR-RES ovarian, 2.1 µM; with ACHN renal, 2.16 µM; with HCT-116 colon, 2.25 µM; in the experiment on SN12C renal, 2.02 µM. Further, the GI50 was 2.11 µM in the experiment on SF-539 CNS, 2.13 µM with NCI-H23 lung, 0.82 µM in the experiment on HT29 colon and 2.3 µM in the experiment on OVCAR-8 ovarian. Moreover, the TGI with UACC-62 melanoma stood at 4.17 µM; in the experiment with K-562 leukemia, 0.802 µM; with NCI/ADR-RES ovarian, 4.34 µM; with ACHN renal, 4.07 µM; in the experiment on HCT-116 colon it was 4.26 µM; in the experiment on SN12C renal, 4.04 µM. The TGI with SF-539 CNS was determined as 4.11 µM; with NCI-H23 lung it was 4.47 µM; in the experiment on HT29 colon, 2.79 µM; in the experiment with OVCAR-8 ovarian it was 4.81 µM.

Regarding `COc1ccc(CN2c3ccccc3Sc3ccccc32)c(C(F)(F)F)c1`, the GI50 in the experiment on UACC-62 melanoma is 0.917 µM; in the experiment on K-562 leukemia it was 0.395 µM; with NCI/ADR-RES ovarian, 0.462 µM; in the experiment with ACHN renal, 0.666 µM; in the experiment with HCT-116 colon, 0.419 µM; in the experiment with SN12C renal, 9.73 µM. Besides, the GI50 in the experiment with SF-539 CNS was 0.452 µM; in the experiment on NCI-H23 lung it was 1.03 µM; in the experiment on HT29 colon, 0.681 µM; in the experiment with OVCAR-8 ovarian, 2.22 µM. Besides, the TGI was above 100 µM in the experiment on UACC-62 melanoma; above 100 µM with K-562 leukemia; 3.16 µM in the experiment with NCI/ADR-RES ovarian; above 100 µM in the experiment on ACHN renal; 21.8 µM in the experiment on HCT-116 colon; above 100 µM in the experiment with SN12C renal. Further, the TGI in the experiment with SF-539 CNS is 3.89 µM; with NCI-H23 lung it was 93.4 µM; in the experiment with HT29 colon, 10.9 µM; in the experiment with OVCAR-8 ovarian, above 100 µM.

Take `CC(C)(C)c1ccc(Oc2ccc(N)cn2)cc1`: the GI50 is 61.3 µM in the experiment with UACC-62 melanoma; 30.1 µM with K-562 leukemia; 51.6 µM with NCI/ADR-RES ovarian; above 100 µM in the experiment on ACHN renal; 47.5 µM in the experiment with HCT-116 colon; 4.64 µM with SN12C renal. For the same compound, the GI50 is 18.8 µM in the experiment on SF-539 CNS, 53 µM with NCI-H23 lung, 47.2 µM in the experiment with HT29 colon and 75.6 µM in the experiment on OVCAR-8 ovarian. The TGI in the experiment on UACC-62 melanoma, in the experiment on K-562 leukemia, in the experiment on NCI/ADR-RES ovarian, in the experiment with ACHN renal, with HCT-116 colon and in the experiment with SN12C renal was above 100 µM in each case. Besides, the TGI in the experiment with SF-539 CNS, with NCI-H23 lung, in the experiment on HT29 colon and in the experiment on OVCAR-8 ovarian was above 100 µM throughout.

For the compound `Cc1ccc(/C=N/Nc2nc(Nc3ccccc3)nc(-n3nc(C)cc3C)n2)cc1`, the GI50 in the experiment on UACC-62 melanoma is 4.44 µM; in the experiment on K-562 leukemia it was 3.71 µM; in the experiment with NCI/ADR-RES ovarian, 2.53 µM; in the experiment on ACHN renal, 4.44 µM; with HCT-116 colon, 3.18 µM; with SN12C renal it was 3.11 µM. For the same compound, the GI50 with SF-539 CNS was 4.5 µM; with NCI-H23 lung, 5.41 µM; in the experiment with HT29 colon, 3.55 µM; in the experiment with OVCAR-8 ovarian, 3.33 µM. In addition, the TGI with UACC-62 melanoma was determined as 24.2 µM; in the experiment with K-562 leukemia it was 42.7 µM; in the experiment with NCI/ADR-RES ovarian, 8.67 µM; in the experiment with ACHN renal it was 56.6 µM; in the experiment on HCT-116 colon it was 11.7 µM; in the experiment with SN12C renal, 92.4 µM. Besides, the TGI is 25.1 µM in the experiment on SF-539 CNS, 24.3 µM in the experiment with NCI-H23 lung, above 100 µM with HT29 colon and 11.5 µM with OVCAR-8 ovarian.

Take `COc1ccc(Cc2coc3ccccc3c2=O)cc1OC`: the TGI in the experiment with UACC-62 melanoma, in the experiment with K-562 leukemia, with NCI/ADR-RES ovarian, with ACHN renal, in the experiment on HCT-116 colon and in the experiment on SN12C renal was above 100 µM each time. In addition, the TGI in the experiment with SF-539 CNS, in the experiment on NCI-H23 lung, in the experiment on HT29 colon and in the experiment with OVCAR-8 ovarian was above 100 µM in each case.

For the compound `CC1(C)CNc2cc(NC(=O)c3cccnc3NCc3ccncc3)ccc21`, the GI50 in the experiment on UACC-62 melanoma was 12.9 µM; with K-562 leukemia, 19.9 µM; in the experiment on NCI/ADR-RES ovarian, 25.1 µM; in the experiment with ACHN renal it was 10.6 µM; in the experiment on HCT-116 colon, 34.3 µM; with SN12C renal it was 25.5 µM. Moreover, the GI50 with SF-539 CNS was 7.5 µM; with NCI-H23 lung, 27.6 µM; with HT29 colon, 32.2 µM; in the experiment with OVCAR-8 ovarian, 33.3 µM. Also, the TGI with UACC-62 melanoma is 48.4 µM; with K-562 leukemia, above 100 µM; with NCI/ADR-RES ovarian, above 100 µM; with ACHN renal it was above 100 µM; in the experiment with HCT-116 colon it was above 100 µM; with SN12C renal, above 100 µM. Further, the TGI in the experiment with SF-539 CNS is 58.9 µM; with NCI-H23 lung, above 100 µM; in the experiment with HT29 colon, above 100 µM; in the experiment with OVCAR-8 ovarian, above 100 µM.

Take `C=C/C=C/[C@@H](O)CC(=C)C[C@H]1OC2[C@H](C)[C@@H](OC(=O)C[C@H]3C[C@H](OC(C)=O)C[C@@]4(C[C@@](C)(O)C[C@H](CC(=C)[C@@H](C)[C@H](OC(C)=O)[C@H](C)C(=O)C[C@@H]5C[C@H](OC)CC6(C[C@@H](O)C[C@H](/C=C\CCC[C@H]7O[C@](O)(C=C[C@H]7C)[C@H]2O)O6)O5)O4)O3)[C@@H]1O`: the TGI in the experiment on K-562 leukemia was above 25 µM; with NCI/ADR-RES ovarian, 0.164 µM; with ACHN renal it was above 25 µM; with HCT-116 colon, 0.0112 µM; with SF-539 CNS, below 0.0025 µM; in the experiment on NCI-H23 lung it was below 0.0025 µM. In addition, the GI50 in the experiment on ACHN renal was 0.00472 µM and 0.00856 µM; with SN12C renal it was 0.000339 µM and 0.0025 µM; in the experiment with SF-539 CNS, below 0.0025 µM; with NCI-H23 lung, 0.000475 µM and < 0.0025 µM; with HT29 colon, 0.0025 µM; in the experiment with OVCAR-8 ovarian, 0.00053 µM and 0.0025 µM.
